Laboratory results reported in ChEMBL document CHEMBL1123817, “X-ray crystal structure of the opioid ligand naltrexonazine” (J Med Chem, 1987).

What follows are molecules tested against Opioid receptor (Rattus norvegicus, UniProt P33533+P34975+P33535) (assay: Inhibition of [3H]DAMPGO binding was determined using standard binding assay in rat brain homogenates against opioid receptor).
Assay type: tissue-based
Work on Oc1ccc2c3c1O[C@H]1/C(=N/N=C4\CC[C@@]5(O)[C@H]6Cc7ccc(O)c8c7[C@@]5(CCN6CC5CC5)[C@H]4O8)CC[C@@]4(O)[C@@H](C2)N(CC2CC2)CC[C@]314 (mixture of isomers) [NALTREXONAZINE] yielded an IC50 of 0.35 nM. Oc1ccc2c3c1O[C@H]1/C(=N/N=C4\CC[C@@]5(O)[C@H]6Cc7ccc(O)c8c7[C@@]5(CCN6CC5CC5)[C@H]4O8)CC[C@@]4(O)[C@@H](C2)N(CC2CC2)CC[C@]314 (stereo in doubt; anti) [NALTREXONAZINE] showed an IC50 of 0.45 nM. Oc1ccc2c3c1O[C@H]1/C(=N/N=C4\CC[C@@]5(O)[C@H]6Cc7ccc(O)c8c7[C@@]5(CCN6CC5CC5)[C@H]4O8)CC[C@@]4(O)[C@@H](C2)N(CC2CC2)CC[C@]314 (stereo in doubt; syn) [NALTREXONAZINE] gave an IC50 of 0.47 nM.
